According to patent US20070166547A1, “Use of a layer consisting of hydrophobic linear, or two-dimensional polycyclic aromatics as a barrier layer or an encapsulation and electric components constructed with a layer of this type and comprising organic polymers” (priority 2003, published 2007):

Tests used:
[1] = system: adenosine-sensitive receptors of erythrocytes; experiment: Chemiluminescence study of bonding to erythrocytes and competition with adenosine; assay type: binding, mice of line BALB/c; settings: 37° C. vs 4° C.; 10^−7 to 10^−5 M
Experimental: The interaction of compounds 2, 15, 21, 37 according to the invention with adenosine-sensitive receptors of erythrocytes of female mice of line BALB/c of an age of 8-12 months was investigated.
The dependence of the chemiluminescence intensity of the compounds according to the invention in an alkaline solution of 0.1N NaOH was determined in the presence of hydrogen peroxide being an initiator of chemiluminescence. The chemiluminescence was studied using the <<LKB>> chemiluminometer.
The erythrocytes of peripheral blood of the mice at first were washed three times by a normal physiological solution with centrifuging and then diluted in the Henks solution without glucose by 10 volumes of distilled water immediately used in the experiment.
At the first stage of the experiments the washed erythrocytes were incubated at a temperature of 37° C. or at 4° C. with solutions of the compounds according to the invention at a concentration of 10^−7 to 10^−5 M for 5-30 minutes, then washed by a normal physiological solution with repeated centrifuging in the cold. The obtained suspension of erythrocytes with the bound compounds according to the invention was placed in 0.1N solution of NaOH with addition of hydrogen peroxide at a final concentration of 10^−7 M. The chemiluminescence intensity was measured. A suspension of erythrocytes without compounds according to the invention was used as a control medium.
At the second stage of the experiments the washed erythrocytes were incubated at a temperature of 37° C. with solutions of the compounds according to the invention at a concentration of 10^−11 to 10^−8M during
5-30 minutes, then washed twice with a normal physiological solution by centrifuging in the cold, the obtained suspension was mixed with an adenosine solution at a concentration of 10^−6 to 10^−4 and incubated for 15 minutes, then washed twice with a normal physiological solution with centrifuging in the cold. The obtained suspension of erythrocytes with the compounds according to the invention was placed in 0.1N solution of NaOH with addition of hydrogen peroxide in the final concentration of 10^−7 M. The chemiluminescence intensity was measured.

[2] = system: thymus; experiment: Morphine abstinence model: thymus condition; assay type: in vivo, rats; settings: compound alone
[3] = system: synthase of nitrogen oxide (NOC); experiment: Morphine abstinence model: activity of synthase of nitrogen oxide (radiometric, [3H]L-citrulline); assay type: in vivo, rats Wistar
[4] = system: plasma hemostasis; experiment: Partial activated thromboplastin time (PATT) after intravenous administration; assay type: in vivo, rabbit
Experimental: (§1) The investigations were performed on 72 rabbits of the “Chinchilla” breed with a mass of 2.5±0.3 kg, who were administered which solutions of compounds 2, 15, 21, 37 in doses of 15, 30 and 60 mg/kg intravenously. The experiments included the thrombin-test (series No. 7300) and the coagulability-test (series No. 5000) purchased from the scientific-and-production association (SPA) “Renam”, thromboplastin (series No. 240600) and calcium chloride purchased from the SPA “MedioLab”
(§2) The static parameters of the blood and plasma coagulation (partial activated thromboplastin time, thrombin time, maximum coagulation activity (test for auto coagulation) were determined using the Behnk Electronic coagulometer (Germany). The operating principle of this instrument is based on the fact that the formed blood clot breaks the contacts of the pulse counter in the flask-pin circuit, said pin permanently oscillating in a vertical plane. The moment of formation of the clot is registered by stopping the stop watch hand.
(§3) The measurements were effected at a constant temperature of 37° C. maintained by a temperature control unit.
Compounds 2, 15, 21, 37 according to the invention at a concentration of 15, 30 and 60 mg/kg were introduced to the above experimental animals intravenously, and their blood samples were taken off 15, 30, 60 and 120 minutes after the administration.
The blood plasma samples deprived of thrombocytes obtained as described above in an amount of 0.1 ml were put in a coagulometer flask and heated for 1 minute at 37° C., then 0.1 ml of 0.277% solution of calcium chloride was added and the blood clotting time was registered. The coagulation time T in seconds of the control plasma and plasma obtained after intravenous administration after 15, 30, 60 and 120 minutes were compared.

[5] = system: plasma hemostasis; experiment: Prothrombin time after intravenous administration; assay type: in vivo, rabbit
Experimental: as §1, §2, §3
The method of its determination is based on estimation of the coagulation of citrate or oxalic blood plasma, when it is mixed with thromboplastin and a calcium chloride solution. Since under these conditions the time of formation of the clot depends on the content of II, VII, IX and X factors in the investigated plasma sample, now the test is called “thromboplastin time by Quick” or “activity thromboplastin complex”.
Compounds 2, 15, 21, 37 according to the invention at a concentration of 15, 30 and 60 mg/kg were administered to the above experimental animals intravenously and their blood was taken off after 15, 30, 60 and 120 minutes after the administration.
Citrate blood containing 1 part of citrate per 9 parts of native blood was centrifuged at 3000 rev/min for 10 minutes to obtain plasma deprived of thrombocytes.
Added into a test tube in a water bath were 0.1 ml of plasma and 0.1 ml of a thromboplastin solution. After 60 seconds, 0.1 ml of 0.277% solution of calcium chloride was added and the time of reaction T1 in seconds was registered.

[6] = compound alone 20.0 mg/kg intramuscularly
[7] = morphinized rats then compound 20.0 mg/kg intramuscularly

`O=c1[nH][nH]c(=O)c2c(Br)ncnc12.[K]` [Compound 37, potassium salt of 4-bromine-pyrimido[4,5-D]-6H-pyridazine-5,8-dione] was tested, and the “bond with the erythrocytes: dependence on incubation temperature” value [1] was “does not depend on the temperature”, the “Nitrites, thymus Supernatant, Administration of compounds” value [2] was 0.410 ± 0.01 nmol/mg of protein and the “Thymus mass, Administration of compounds” value [2] was 263 ± 21 mg. For the same compound, the “Activity of NOC, Hypothalamus, Control + Compound” value [3, 6] was 5.61 ± 0.22 pmol/min/mg of protein, the “Activity of NOC, Mesencephalon, Control + Compound” value [3, 6] was 2.62 ± 0.27 pmol/min/mg of protein and the “Activity of NOC, Hypothalamus, Control + Morphine + compound” value [3, 7] was 5.59 ± 0.22 pmol/min/mg of protein. The “Activity of NOC, Mesencephalon, Control + Morphine + compound” value [3, 7] was 1.85 ± 0.30 pmol/min/mg of protein, the “T, s after 15 minutes (PATT)” value ([4]; dose 15.0 mg/kg intravenously) was 37.0 ± 0.2 s and the “T, s after 30 minutes (PATT)” value ([4]; dose 15.0 mg/kg intravenously) was 37.1 ± 0.1 s. For the same compound, the “T, s after 60 minutes (PATT)” value ([4]; dose 15.0 mg/kg intravenously) was 37.0 ± 0.2 s, the “T, s after 120 minutes (PATT)” value ([4]; dose 15.0 mg/kg intravenously) was 36.9 ± 0.1 s and the “T, s after 15 minutes (PATT)” value ([4]; dose 30.0 mg/kg intravenously) was 33.1 ± 0.1 s. The “T, s after 30 minutes (PATT)” value ([4]; dose 30.0 mg/kg intravenously) was 33.3 ± 0.1 s, the “T, s after 60 minutes (PATT)” value ([4]; dose 30.0 mg/kg intravenously) was 33.3 ± 0.2 s and the “T, s after 120 minutes (PATT)” value ([4]; dose 30.0 mg/kg intravenously) was 33.0 ± 0.4 s. For the same compound, the “T, s after 15 minutes (PATT)” value ([4]; dose 60.0 mg/kg intravenously) was 32.5 ± 0.1 s, the “T, s after 30 minutes (PATT)” value ([4]; dose 60.0 mg/kg intravenously) was 32.3 ± 0.2 s and the “T, s after 60 minutes (PATT)” value ([4]; dose 60.0 mg/kg intravenously) was 32.4 ± 0.1 s. For the same compound, the “T, s after 120 minutes (PATT)” value ([4]; dose 60.0 mg/kg intravenously) was 32.6 ± 0.3 s, the “effect on the PATT (overall)” value ([4]; doses 15.0, 30.0, 60.0 mg/kg) was “do not affect the PATT” and the “T, s After 120 minutes (prothrombin time)” value ([5]; dose 15.0 mg/kg intravenously) was 11.8 ± 0.1 s. For the same compound, the “T, s after 15 minutes (prothrombin time)” value ([5]; dose 15.0 mg/kg intravenously) was 11.6 ± 0.2 s, the “T, s after 30 minutes (prothrombin time)” value ([5]; dose 15.0 mg/kg intravenously) was 11.6 ± 0.1 s and the “T, s after 60 minutes (prothrombin time)” value ([5]; dose 15.0 mg/kg intravenously) was 11.5 ± 0.2 s. For the same compound, the “T, s After 120 minutes (prothrombin time)” value ([5]; dose 30.0 mg/kg intravenously) was 11.1 ± 0.1 s, the “T, s after 15 minutes (prothrombin time)” value ([5]; dose 30.0 mg/kg intravenously) was 11.3 ± 0.1 s and the “T, s after 30 minutes (prothrombin time)” value ([5]; dose 30.0 mg/kg intravenously) was 11.2 ± 0.2 s. The “T, s after 60 minutes (prothrombin time)” value ([5]; dose 30.0 mg/kg intravenously) was 11.4 ± 0.1 s, the “T, s After 120 minutes (prothrombin time)” value ([5]; dose 60.0 mg/kg intravenously) was 12.0 ± 0.1 s and the “T, s after 15 minutes (prothrombin time)” value ([5]; dose 60.0 mg/kg intravenously) was 12.1 ± 0.1 s. The “T, s after 30 minutes (prothrombin time)” value ([5]; dose 60.0 mg/kg intravenously) was 12.0 ± 0.1 s, the “T, s after 60 minutes (prothrombin time)” value ([5]; dose 60.0 mg/kg intravenously) was 12.1 ± 0.2 s and the “effect on the prothrombin time index (overall)” value ([5]; doses of 15.0, 30.0, 60.0 mg/kg) was “have no effect on the prothrombin time index”.
